Results taken from patent US20230381163A1, “DABIGATRAN COMPOSITIONS AND METHODS OF TREATING AGE-RELATED MACULAR DEGENERATION” (The United States Government As Represented By The …, priority 2022, published 2023).

Legend:
[1] = test system: VEGF secretion in ARPE-19 cells; assay: VEGF secretion into apical supernatant of ARPE-19 monolayers (ELISA); type: cell-based, human
Procedure: (§1) Cell culture experiments: Cells. […] Frontiers in Aging Neuroscience 9).
VEGF ELISA. VEGF in the supernatant was measured using the Quantikine® Human VEGF Immunoassay (R & D System) according to the manufacturer's protocol. In brief, 200 μl of standard/sample was mixed with 50 μl of assay diluent and added to the plate precoated with the capture antibody. After washing, 200 μl of the VEGF detection antibody (polyclonal antibody specific for human VEGF conjugated to horseradish peroxidase) was added, followed by freshly prepared substrate reagents (stabilized hydrogen peroxide and tetramethylbenzidine). The reaction was terminated using 50 μl of stop solution and absorbance was measured at λ1 450 nm with wavelength correction λ2 at 540 nm. VEGF concentration of samples were calculated comparing the absorbance with the standards and converted into fold change considering the serum-free condition as 1 in the scale.

[2] = test system: CTGF expression in ARPE-19 cells; assay: Thrombin-induced CTGF expression in ARPE-19 cell lysates (western blot); conditions: for reduction of thrombin-induced CTGF expression: thrombin 1 U/mL
Procedure: Cell culture experiments: Cells. Human ARPE-19 (ATCC® CRL-2302™; American Type Culture Collection, Manassas VA) cells were cultured in DMEM cell culture media (Gibco/ThermoFisher Scientific) containing high glucose DMEM with D-glucose (4.5 g/L), L-glutamine, sodium pyruvate (110 mg/L), Penicillin and Streptomycin (1×) and 10% of FBS. Cells (<passage 10 after purchase) were expanded in T75 cell culture flasks at 37° C., in the presence of 5% CO2. Confluent cells were trypsinized with 0.05% trypsin (Gibco), and equal numbers of cells were seeded on 6-well transwell filters/plate (Costar). […] Integrity of the cell monolayer was assessed by Transepithelial resistance (TER) measurements using an EVOM volt-ohmmeter (World Precision Instruments) four weeks after plating. RPE monolayers with a stable TER repeatedly measured as ˜40-45 S2 cm 2 were used for these experiments.
Treatments. Prior to each experiment, the cell monolayer was washed with serum-free medium (SFM) and maintained in SFM for 24 hours. […] Treatments were performed on the apical side of the transwell membrane, which represents the retinal side of the RPE in vivo. Some of the cells were treated with thrombin (EMD Millipore Corp), complement components C3a, C5a (Complement Technology), thrombin agonist PAR1-AP (Sigma-Aldrich; amino acid sequence SFLLRN (SEQ ID NO: 1)), thrombin inhibitor dabigatran etexilate (Sigma-Aldrich), C3 inhibitor compstatin (R&D Systems), AP inhibitor TT30 (Alexion Therapeutics), a protease inhibitor alpha1-antitrypsin (Sigma-Aldrich), and the thrombin receptor proteinase activated receptor 1 inhibitor SCH 79797 (Sigma-Aldrich). Treatments were performed 60 min prior to the addition of thrombin. Cell culture supernatant and lysate were collected after specific time points or after 24 hrs of treatment and stored at −20° C. for later use.
Western blotting. […] Cell lysates were collected in RIPA cell lysis buffer containing 150 mM NaCl, 1.0% IGEPAL® CA-630, 0.5% sodium deoxycholate, 0.1% SDS, 50 mM Tris (pH 8.0) (Sigma-Aldrich) in presence of 1×protease inhibitor (Sigma-Aldrich). Equal amount of each samples were loaded on 4-20% Criterion™ TGX™ precast gels (Bio-Rad Laboratories, Inc.) (Annamalai, B., et al. (2020). Invest Ophthalmol Vis Sci 61, 45). Proteins were transferred to a nitrocellulose membrane and incubated in primary antibody followed by appropriate secondary antibodies coupled to peroxidase, followed by band development and detection using Clarity™ Western ECL blotting substrate (Bio-Rad Laboratories, Inc.) and chemiluminescent detection. Protein bands were scanned and densities quantified using ImageJ software. The following antibodies were used: C3a (1:1000; Complement Technology), C5a (1:1000; Abcam), connective tissue growth factor/CTGF (1:1000; Abcam), C3d anti-C3d (clone 11, 1:1000; generation of the antibody is described in (Thurman, J. M., et al. (2013). J Clin Invest 123, 2218-2230)), VEGF (1:1000, Santa Cruz Biotechnology, Inc.), β-actin (1:2000; Cell Signaling Technology) and concentrations selected based on the data sheet recommendations.
ARPE-19 cell monolayers were treated with thrombin (0.5-10 U/ml) and cell lysates were collected and analyzed for CTGF levels at 4 hrs post treatment by western blotting.

[3] = molecular target: thrombin (Homo sapiens, UniProt P00734); assay: Thrombin activity in cell-free system; conditions: 100 μM
Procedure: Thrombin activity in cell-free system. To measure the level of active thrombin in cell-free system, known concentrations of thrombin were prepared in 100 μl of assay buffer (50 mM Tris, 100 mM NaCl, and 0.01% BSA; pH 7.5), subsequently 50 μl of thrombin substrate was added and incubated at 37° C. Fluorescence was measured at 405 nm using the Biotek Synergy HT Microplate Reader and thrombin activity was determined by extrapolation from a thrombin standard curve. Effects of inhibitors were tested by pre-incubating the inhibitors with thrombin, before substrate incorporation.

[4] = test system: complement component C3; assay: Thrombin-mediated C3 cleavage in apical supernatants of ARPE-19 cells (western blot); type: cell-based, human; conditions: 100 μM
Procedure: Second, it was tested whether thrombin can cleave complement components (Huber-Lang, M., et al. (2006). Nat Med 12, 682-687; and Krisinger, M. J., et al. (2012). Blood 120, 1717-1725), specifically C3 and C5, producing cleavage products potentially different from those produced by classical convertases. To test the effects of thrombin on complement cleavage, the apical supernatants of treated ARPE-19 cell monolayers were analyzed by western blotting. Cleavage of C3α was evaluated using an antibody specific for C3a (FIG. 5A, left-hand blot). The C3a antibody detected C3, the C3α band as well as other fragments containing C3a. Thrombin caused a concentration dependent cleavage of complement component C3 (˜190 kDa), caused reduction of the 120 kDa C3a band and generation of a new 80 kDa fragment. Fragments at 32 kDa and 9-10 kDa with higher doses of thrombin treatment (FIG. 5A, 10 U/mL) were also observed. The 9-10 kDa band ran at the same molecular weight as purified C3a (FIG. 11). The reduction of the 120 kDa fragment was correlated with the generation of the 80 kDa fragment (FIG. 5B). The loss of the 120 kDa fragment was prevented by either dabigatran (10 μM) or the C3 inhibitor compstatin (100 μM), which inhibits complement both on cell membranes as well as in fluid phase, but not by TT30 (10 μM), which is an inhibitor that prevents membrane-bound AP activation (FIG. 5C). […]

[5] = test system: ARPE-19 cell monolayers; assay: Transepithelial resistance (TER) of ARPE-19 monolayers; type: cell-based, human
Procedure: as §1
Thrombin reduces barrier function in RPE cells and induces CTGF expression and VEGF secretion. […] Thrombin is a serine-protease and is a known contributor to the damage of the blood-brain barrier (Machida, T., et al. (2017). PLoS One 12, e0177447). To examine the effects of thrombin on the blood-retina barrier (i.e., TER), dose- (0.5-10.0 U/ml) and time- (4 and 24 hrs) dependent treatments were performed on stable ARPE-19 cell monolayers, and treatment effects on TER levels to TER at baseline (serum free media/SFM before treatment, 0 hrs) (FIG. 2) were compared.

In the case of `CC(C)c1ccc(Cn2ccc3c4c(N)nc(NC5CC5)nc4ccc32)cc1` [SCH79797], the “effect on thrombin-induced VEGF secretion” value ([1]; SCH79797) is reported as “reduced” and the “reduction of thrombin-induced CTGF expression” value ([2]; SCH79797 250 μM) is reported as 1.7 fold.

With `CC[C@H](C)[C@H](N)C(=O)N[C@H]1CSSC[C@@H](C(=O)N[C@H](C(N)=O)[C@@H](C)O)NC(=O)[C@H](CCCN=C(N)N)NC(=O)[C@H](Cc2cnc[nH]2)NC(=O)[C@H](Cc2cnc[nH]2)NC(=O)CNC(=O)[C@H](Cc2c[nH]c3ccccc23)NC(=O)[C@H](CC(=O)O)NC(=O)[C@H](CCC(N)=O)NC(=O)[C@H](C(C)C)NC(=O)[C@H](C(C)C)NC1=O` [compstatin] the “effect on thrombin enzyme activity” value [3] was “did not affect”, the “effect on thrombin-mediated loss of the 120 kDa C3 fragment” value [4] was “prevented” and the “effect on thrombin-induced VEGF secretion” value ([1]; compstatin) was “partially reduce”. For the same molecule, the “effect on thrombin-induced CTGF expression” value ([2]; compstatin) was “partially reduce”.

For “C3a: complement component, anaphylatoxin (Complement Technology)”, the “effect on VEGF secretion” value ([1]; C3a, 260 nM) was “weak stimulator”.

With “alpha1-antitrypsin: general (non-specific) protease inhibitor (Sigma-Aldrich)” the “reduction of thrombin-induced CTGF expression” value ([2]; alpha1-antitrypsin 1 mg/mL) was 5.3 fold.

For thrombin, the “effect on TER” value ([5]; thrombin 0.5 U/mL, apical) was “barely affected”, the “effect on TER” value ([5]; thrombin 2.5 U/ml, 24 hrs) was “significant damage to the epithelial barrier integrity” and the “effect on TER” value ([5]; thrombin 5 U/ml and 10 U/ml, 4 hrs) was “significant barrier function loss”. The “increase of VEGF in apical supernatants” value ([1]; thrombin alone) was 2.5 fold and the “effect on CTGF expression” value ([2]; thrombin, 4 hrs, P<0.05) was “significantly increased”.

B1: C5a: complement component, anaphylatoxin (Complement Technology) (protein, UniProt P01031 678-751, looked up)
C5a anaphylatoxin: TLQKKIEEIAAKYKHSVVKKCCYDGACVNNDETCEQRAARISLGPRCIKAFTECCVVASQLRANISHKDMQLGR
modifications: C5a anaphylatoxin
For B1, the “effect on VEGF secretion” value ([1]; C5a, 52 nM) was “increasing VEGF levels to that identified by thrombin stimulation”.
